Measurements: patent US10668048B2, “Compounds for inhibiting bacterial growth via phosphatidylglycerol binding” (Wichita State University, priority 2016, dated 2020)

Experiments:
[1] = Liptin-PG binding in solution (ITC and/or 1H NMR titration); conditions: for binding constant for PG (Ka): in DMF solution, prior research
Method: The lipid binding ability of liptins 1-3 (FIG. 2A) have been investigated in solution using isothermal titration calorimetry (ITC) and/or ^1H NMR. Stoichiometry of binding was accomplished with Job plots using ^1H NMR. […] The use of organic solvents allowed the determination of binding motif using ^1H NMR.
Liptins 1b, 1e, 2c, 2d, 3a, 3c in DMF/5% CHCl3; 3e in 50% DMSO, 45% CHCl3, 5% CH3OH.
Liptins 1h and 1i 40% DMSO, 60% CHCl3, 3f in 20% DMSO, 80% CHCl3.

[2] = Inorganic phosphate anion binding in DMF solution
Excerpt: Liptins 2a-2d (FIG. 2A) have been prepared and characterized, but not published. However, example syntheses of several precursors required for the preparation of liptins 2a-2d, via precursors 7-8, utilizing soluble copper catalyst developed in our laboratory to couple the two aromatic rings and to elaborate the ring structure is based upon our previous experience, as is our methodology to efficiently ureidoalkylate the bis-phenol intermediates (FIG. 5). […] In contrast, inorganic phosphate anion bound more tightly to 2c (Ka=10^3 M^−1), indicating the anion binding unit with […] linking the two phenolic oxygens was a complementary fit for phosphate anion. By adding two additional methylene groups to the bridge linking the two rings [i.e., now (CH2)5, 2d], the size of the pocket better accommodates the PG head group, leading to increased […] with a Ka≈500 M^−1 in DMF. To further increase binding affinity, we changed the 3-hydroxypropane para-substituent into a 2,3-propane diol para-substituent (seen in 8 prepared from 7, FIG. 5). This increased the number of possible interactions between the liptin and the PG glycerol hydroxyls and reduced possible conformational constraints in the binding pocket when only two hydroxyl groups are present. […]

[3] = ITC, DMF/5% CHCl3, 1:1 binding stoichiometry

| SMILES | binding constant for PG (Ka) [1] | Ka [1, 3] | further results |
| --- | --- | --- | --- |
| O=C(NCc1cc(CCCO)cc2c1OCCCCOc1c(cc(CCCO)cc1CNC(=O)Nc1ccccc1)CCC2)Nc1ccccc1 [Liptin 2a] | no significant binding | – | – |
| O=C(NCc1cc(CCCO)cc2c1OCCCOc1c(cc(CCCO)cc1CNC(=O)Nc1ccccc1)CCC2)Nc1ccccc1 [Liptin 2b] | no significant binding | – | – |
| O=C(NCc1cc(CCCO)cc2c1OCOc1c(cc(CCCO)cc1CNC(=O)Nc1ccccc1)CCC2)Nc1ccccc1 [Liptin 2c] | – | 420 M⁻¹ | Ka for inorganic phosphate anion [2]: 10^3 M^−1 |
| O=C(CNCc1ccccc1)Nc1ccccc1-c1c2nc(c(-c3ccccc3NC(=O)CNCc3ccccc3)c3ccc([nH]3)c(-c3ccccc3NC(=O)CNCc3ccccc3)c3nc(c(-c4ccccc4NC(=O)CNCc4ccccc4)c4ccc1[nH]4)C=C3)C=C2 [Liptin 3f] | – | – | Ka ([1]; NMR titrations, 20% DMSO, 80% CHCl3): 2800 M⁻¹ |

Continued, in another order:

| binding constant for PG (Ka) [1] | Ka [1, 3] | SMILES | further results |
| --- | --- | --- | --- |
| – | 2100 M⁻¹ | O=C(NCCOCc1ccccc1)Nc1ccccc1-c1c2nc(c(-c3ccccc3NC(=O)NCCOCc3ccccc3)c3ccc([nH]3)c(-c3ccccc3NC(=O)NCCOCc3ccccc3)c3nc(c(-c4ccccc4NC(=O)NCCOCc4ccccc4)c4ccc1[nH]4)C=C3)C=C2 [Liptin 3a] | – |
| – | 3700 M⁻¹ | CCOCCOCCOCCNC(=O)Nc1ccccc1-c1c2nc(c(-c3ccccc3NC(=O)NCCOCCOCCOCC)c3ccc([nH]3)c(-c3ccccc3NC(=O)NCCOCCOCCOCC)c3nc(c(-c4ccccc4NC(=O)NCCOCCOCCOCC)c4ccc1[nH]4)C=C3)C=C2 [Liptin 3c] | – |
